# Tested on: 521955-158-R6-J3-PDC complex spheroid growth, % test/control
# Experiment: Anticancer human tumor 521955-158-R6-J3-PDC patient-derived pancreatic carcinoma cell line growth inhibition [Asc]
# Details: for IC50: curve of first compound; for viability, T/C: stronger effect = lower value
# How it was run: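 Tumor cells were grown as complex spheroids with human endothelial cells (HUVEC) and human mesenchymal stem cells as stroma. Agents were tested alone and in combination, in half-log steps down from the clinical Cmax, or from 10 microM where Cmax was unknown.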
# 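Also: spheroids exposed to compounds for 7 days.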
# 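For viability, T/C in this document: 100% = DMSO vehicle control wells.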
smiles,measurement,setting,value
C#Cc1c(F)ccc2cc(O)cc(-c3ncc4c(N5CC6CCC(C5)N6)nc(OCC56CCCN5CC(F)C6)nc4c3F)c12 (centres undefined) + CNC(C)C(=O)NC1CN(S(=O)(=O)c2cccc(S(=O)(=O)N3CCC4CCC(C(=O)NC(c5ccccc5)c5ccccc5)N4C(=O)C(NC(=O)C(C)NC)C3)c2)CCC2CCC(C(=O)NC(c3ccccc3)c3ccccc3)N2C1=O,IC50,second compound 0.00316 µM,0.115 µM
same,IC50,second compound 0.01 µM,0.063 µM
same,IC50,second compound 0.0316 µM,0.0559 µM
same,IC50,second compound 0.1 µM,0.0703 µM
same,IC50,second compound 0.316 µM,0.042 µM
same,IC50,second compound 1 µM,< 0.0316 µM
same,"viability, T/C","second compound 0.00316 µM, first compound 0.0316 µM",57.4%
same,"viability, T/C","second compound 0.00316 µM, first compound 0.1 µM",45.8%
same,"viability, T/C","second compound 0.00316 µM, first compound 0.316 µM",46.8%
same,"viability, T/C","second compound 0.00316 µM, first compound 1 µM",38.4%
same,"viability, T/C","second compound 0.00316 µM, first compound 3.16 µM",36.3%
same,"viability, T/C","second compound 0.00316 µM, first compound 10 µM",21.4%
same,"viability, T/C","second compound 0.01 µM, first compound 0.0316 µM",56.6%
same,"viability, T/C","second compound 0.01 µM, first compound 0.1 µM",44.7%
same,"viability, T/C","second compound 0.01 µM, first compound 0.316 µM",38.4%
same,"viability, T/C","second compound 0.01 µM, first compound 1 µM",34.7%
same,"viability, T/C","second compound 0.01 µM, first compound 3.16 µM",37%
same,"viability, T/C","second compound 0.01 µM, first compound 10 µM",25.1%
same,"viability, T/C","second compound 0.0316 µM, first compound 0.0316 µM",54.9%
same,"viability, T/C","second compound 0.0316 µM, first compound 0.1 µM",42.8%
same,"viability, T/C","second compound 0.0316 µM, first compound 0.316 µM",42%
same,"viability, T/C","second compound 0.0316 µM, first compound 1 µM",33.1%
same,"viability, T/C","second compound 0.0316 µM, first compound 3.16 µM",25.6%
same,"viability, T/C","second compound 0.0316 µM, first compound 10 µM",24.9%
same,"viability, T/C","second compound 0.1 µM, first compound 0.0316 µM",56.5%
same,"viability, T/C","second compound 0.1 µM, first compound 0.1 µM",46%
same,"viability, T/C","second compound 0.1 µM, first compound 0.316 µM",38.7%
same,"viability, T/C","second compound 0.1 µM, first compound 1 µM",38.7%
same,"viability, T/C","second compound 0.1 µM, first compound 3.16 µM",33.6%
same,"viability, T/C","second compound 0.1 µM, first compound 10 µM",24.8%
same,"viability, T/C","second compound 0.316 µM, first compound 0.0316 µM",54.4%
same,"viability, T/C","second compound 0.316 µM, first compound 0.1 µM",37%
same,"viability, T/C","second compound 0.316 µM, first compound 0.316 µM",33.1%
same,"viability, T/C","second compound 0.316 µM, first compound 1 µM",29.7%
same,"viability, T/C","second compound 0.316 µM, first compound 3.16 µM",33.6%
same,"viability, T/C","second compound 0.316 µM, first compound 10 µM",18.3%
same,"viability, T/C","second compound 1 µM, first compound 0.0316 µM",44.9%
same,"viability, T/C","second compound 1 µM, first compound 0.1 µM",41.7%
same,"viability, T/C","second compound 1 µM, first compound 0.316 µM",43.5%
same,"viability, T/C","second compound 1 µM, first compound 1 µM",30.7%
same,"viability, T/C","second compound 1 µM, first compound 3.16 µM",30.4%
same,"viability, T/C","second compound 1 µM, first compound 10 µM",21.9%
Cc1nc(N2CCC3(CC2)COC(C)C3N)c(CO)nc1Sc1ccnc(N)c1Cl (centres undefined) + CNC(C)C(=O)NC1CN(S(=O)(=O)c2cccc(S(=O)(=O)N3CCC4CCC(C(=O)NC(c5ccccc5)c5ccccc5)N4C(=O)C(NC(=O)C(C)NC)C3)c2)CCC2CCC(C(=O)NC(c3ccccc3)c3ccccc3)N2C1=O,IC50,second compound 0.00316 µM,> 3 µM
same,IC50,second compound 0.01 µM,> 3 µM
same,IC50,second compound 0.0316 µM,> 3 µM
same,IC50,second compound 0.1 µM,> 3 µM
same,IC50,second compound 0.316 µM,> 3 µM
same,IC50,second compound 1 µM,> 3 µM
same,"viability, T/C","second compound 0.00316 µM, first compound 0.00949 µM",99.5%
same,"viability, T/C","second compound 0.00316 µM, first compound 0.03 µM",88.7%
same,"viability, T/C","second compound 0.00316 µM, first compound 0.0949 µM",73.2%
same,"viability, T/C","second compound 0.00316 µM, first compound 0.3 µM",86.7%
same,"viability, T/C","second compound 0.00316 µM, first compound 0.949 µM",73.4%
same,"viability, T/C","second compound 0.00316 µM, first compound 3 µM",55%
same,"viability, T/C","second compound 0.01 µM, first compound 0.00949 µM",109%
same,"viability, T/C","second compound 0.01 µM, first compound 0.03 µM",74%
same,"viability, T/C","second compound 0.01 µM, first compound 0.0949 µM",79.4%
same,"viability, T/C","second compound 0.01 µM, first compound 0.3 µM",87.7%
same,"viability, T/C","second compound 0.01 µM, first compound 0.949 µM",69.9%
same,"viability, T/C","second compound 0.01 µM, first compound 3 µM",57.9%
same,"viability, T/C","second compound 0.0316 µM, first compound 0.00949 µM",90%
same,"viability, T/C","second compound 0.0316 µM, first compound 0.03 µM",83.1%
same,"viability, T/C","second compound 0.0316 µM, first compound 0.0949 µM",81.1%
same,"viability, T/C","second compound 0.0316 µM, first compound 0.3 µM",73.4%
same,"viability, T/C","second compound 0.0316 µM, first compound 0.949 µM",63.6%
same,"viability, T/C","second compound 0.0316 µM, first compound 3 µM",55%
same,"viability, T/C","second compound 0.1 µM, first compound 0.00949 µM",94.6%
same,"viability, T/C","second compound 0.1 µM, first compound 0.03 µM",79.5%
same,"viability, T/C","second compound 0.1 µM, first compound 0.0949 µM",82.3%
same,"viability, T/C","second compound 0.1 µM, first compound 0.3 µM",68.5%
same,"viability, T/C","second compound 0.1 µM, first compound 0.949 µM",60.1%
same,"viability, T/C","second compound 0.1 µM, first compound 3 µM",60.1%
same,"viability, T/C","second compound 0.316 µM, first compound 0.00949 µM",82.9%
same,"viability, T/C","second compound 0.316 µM, first compound 0.03 µM",74.9%
same,"viability, T/C","second compound 0.316 µM, first compound 0.0949 µM",77.4%
same,"viability, T/C","second compound 0.316 µM, first compound 0.3 µM",67.6%
same,"viability, T/C","second compound 0.316 µM, first compound 0.949 µM",62.5%
same,"viability, T/C","second compound 0.316 µM, first compound 3 µM",52.9%
same,"viability, T/C","second compound 1 µM, first compound 0.00949 µM",82.7%
same,"viability, T/C","second compound 1 µM, first compound 0.03 µM",79.8%
same,"viability, T/C","second compound 1 µM, first compound 0.0949 µM",74.6%
same,"viability, T/C","second compound 1 µM, first compound 0.3 µM",73%
same,"viability, T/C","second compound 1 µM, first compound 0.949 µM",73.9%
same,"viability, T/C","second compound 1 µM, first compound 3 µM",57.6%

# Source: PubChem BioAssay AID1963451 (Molecular Pharmacology Branch, DTP, NCI, 2024)
